{
  "source": "paper PMC4052326",
  "about": "“Alterporriol-Type Dimers from the Mangrove Endophytic Fungus, Alternaria sp. (SK11), and Their MptpB Inhibitions” (Marine Drugs, 2014)",
  "origin": "cited, not measured here",
  "test_system": "clinical multidrug-resistant M. tuberculosis strains",
  "details": "result in words; cited from earlier work",
  "data": [
    {"substance": "4-deoxybostrycin", "values": [
      {"measurement": "inhibition against some clinical multidrug-resistant M. tuberculosis strains", "result": "good inhibition"}
    ]}
  ]
}
